The source of these data is patent US5428182A, “Bile acid derivatives, process for their preparation and use of these compounds as pharmaceuticals” (Hoechst Aktiengesellschaft, priority 1992, dated 1995).

In this test the target is T1, Na^+ -dependent bile acid transport system (Oryctolagus cuniculus, UniProt Q28727).
T1 construct: Brush border membrane vesicles from the intestinal cells of the small intestine were prepared by the so-called Mg^2+ precipitation method; from tissue; host or cells: terminal ileum (terminal 7/10 of small intestine) of male New Zealand rabbits, brush border membrane vesicles
T1 sequence (Q28727 1-347): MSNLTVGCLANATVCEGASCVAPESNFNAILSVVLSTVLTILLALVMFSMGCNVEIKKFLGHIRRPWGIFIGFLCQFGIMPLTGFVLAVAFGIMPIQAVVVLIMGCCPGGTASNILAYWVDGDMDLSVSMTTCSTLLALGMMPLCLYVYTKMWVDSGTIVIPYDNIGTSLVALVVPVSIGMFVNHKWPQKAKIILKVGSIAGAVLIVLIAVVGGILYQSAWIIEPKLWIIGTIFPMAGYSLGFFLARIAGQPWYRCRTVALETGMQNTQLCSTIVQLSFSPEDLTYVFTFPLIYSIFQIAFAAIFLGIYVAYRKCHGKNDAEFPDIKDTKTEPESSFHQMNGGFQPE
The test is described as follows: inhibition of Na+-dependent [3H]-taurocholate absorption in brush border membrane vesicles of rabbit ileum (membrane filtration technique). To be noted: 50 μM taurocholate, customarily 1 minute, pH 7.4. In kind it is biochemical. Here is the method: The biological testing of the compounds according to the invention was carried out by determining the inhibition of [^3 H]-taurocholate absorption in brush border membrane vesicles of the rabbit ileum. The inhibition test was carried out as follows:
Brush border membrane vesicles from the intestinal cells of the small intestine were prepared by the so-called Mg^2+ precipitation method. Male New Zealand rabbits (2 to 2.5 kg body weight) were sacrificed by intravenous injection of 0.5 ml of an aqueous solution of 2.5 mg of tetracaine HCl, 100 T 61® and 25 mg of mebezonium iodide. The small intestine was removed and rinsed with ice-cold physiological saline solution. The terminal 7/10 of the small intestine (measured in the oral-rectal direction, i.e. the terminal ileum, which contains the active Na^+ -dependent bile acid transport system) were used for the preparation of the brush border membrane vesicles. The intestines were frozen under nitrogen at -80° C. in plastic bags. For the preparation of the membrane vesicles, the frozen intestines were thawed at 30° C. in a water bath. The mucosa was scraped off and suspended in 60 ml of ice-cold 12 mM tris/HCl buffer (pH 7.1)/300 mM mannitol, 5 mM EGTA/ 10 mg/l of phenylmethylsulfonyl fluoride/l mg/l of trypsin inhibitor from soybeans (32 U/mg)/0.5 mg/l of trypsin inhibitor from bovine lung (193 U/mg)/5 mg/l of bacitracin. After dilution to 300 ml with ice-cold distilled water, the suspension was homogenized using an Ultraturrax (18-rod, IKAWerk Staufen, FRG) for 3 minutes at 75% maximum power with ice-cooling. After addition of 3 ml of 1M MgCl2 solution (final concentration 10 mM), the homogenate was allowed to stand at 0° C. for exactly 1 minute. As a result of addition of Mg^2+, the cell membranes aggregate and precipitate with the exception of the brush border membranes. After centrifugation at 3000×g for 15 minutes (5000 rpm, SS-34 rotor), the precipitate is discarded and the supernatant which contains the brush border membranes is centrifuged at […] for 30 minutes (15,000 rpm, SS-34 rotor). The supernatant was discarded and the precipitate was rehomogenized in 60 ml of 12 mM tris/HCl buffer (pH 7.1)/60 mM mannitol/5 mM EGTA using a Potter Elvejhem homogenizer (Braun Melsungen, 900 rpm, 10 strokes). After addition of 0.1 ml of 1M MgCl2 solution and an incubation time of 15 minutes at 0° C., centrifugation was once more carried out at 3000×g for 15 minutes. The supernatant was then centrifuged again at 46,000×g (15,000 rpm, SS-34 rotor) for 30 minutes. The precipitate was taken up in 30 ml of 10 mM tris/hepes buffer (pH 7.4)/300 mM mannitol and homogeneously resuspended at 1000 rpm by 20 strokes in a Potter Elvejhem homogenizer. After centrifugation at 48,000×g (20,000 rpm, SS-34 rotor) for 30 minutes, the precipitate was taken up in 0.5 to 2 ml of tris/HEPES buffer (pH 7.4)/280mM mannitol (final concentration 20 mg/ml) and resuspended with the aid of a tuberculin syringe having a 27 gauge needle. The vesicles were either used immediately after preparation for transport investigations or stored in liquid nitrogen at -196° C. in 4 mg portions.
The absorption of substrates in the brush border membrane vesicles described above was determined by means of the so-called membrane filtration technique. 10 μl of the vesicle suspension (100 μg of protein) were pipetted as drops onto the wall of a polystyrene incubation tube (11×70 mm) which contained the incubation medium with the appropriate ligands (90 μl). The incubation medium contained 0.75 μl=0.75 μCi of [^3 H(G)]-taurocholate (specific activity: 2.1 Ci/mMol)/0.5 μl of 10 mM taurocholate/8.75 μl of sodium transport buffer (10 mM tris/HEPES (pH 7.4)/100 mM mannitol/100 mM NaCl) (Na-T-B) or 8.75 μl of potassium transport buffer (10 mM tris/hepes (pH 7.4)/100 mM mannitol/100 mM KCl) (K-T-B) and 80 μl of the inhibitor solution concerned, depending on the experiment, dissolved in Na-T buffer or K-T buffer. […]

For the compound `CC(CCC(=O)O)C1CCC2C3C(O)CC4CC(OCCNC(=O)C5C(C(=O)NCCOC6CCC7(C)C(C6)CC(O)C6C7CC(O)C7(C)C(C(C)CCC(=O)O)CCC67)C(C(=O)NCCOC6CCC7(C)C(C6)CC(O)C6C7CC(O)C7(C)C(C(C)CCC(=O)O)CCC67)C5C(=O)NCCOC5CCC6(C)C(C5)CC(O)C5C6CC(O)C6(C)C(C(C)CCC(=O)O)CCC56)CCC4(C)C3CC(O)C12C` (centres unmarked) [Example 47], the “IC50Na (TCDC) / IC50Na (Substance)” value (quotient of IC50Na of the standard TCDC and of the substance, Na+-dependent transport (difference Na-T-B minus K-T-B)) is reported as 0.23. In addition, under “quotient of IC50 of the standard taurochenodeoxycholate (TCDC) and of the substance”, the “IC50 (TCDC) / IC50 (Substance)” value was determined as 0.24.
